In PMC3654088 (Cell metabolism, 2013) one finds Km data, which are given here for 1 substance.

The target of the test is T1, Tam41 (Saccharomyces cerevisiae, UniProt P53230).
T1 sequence (P53230 27-385): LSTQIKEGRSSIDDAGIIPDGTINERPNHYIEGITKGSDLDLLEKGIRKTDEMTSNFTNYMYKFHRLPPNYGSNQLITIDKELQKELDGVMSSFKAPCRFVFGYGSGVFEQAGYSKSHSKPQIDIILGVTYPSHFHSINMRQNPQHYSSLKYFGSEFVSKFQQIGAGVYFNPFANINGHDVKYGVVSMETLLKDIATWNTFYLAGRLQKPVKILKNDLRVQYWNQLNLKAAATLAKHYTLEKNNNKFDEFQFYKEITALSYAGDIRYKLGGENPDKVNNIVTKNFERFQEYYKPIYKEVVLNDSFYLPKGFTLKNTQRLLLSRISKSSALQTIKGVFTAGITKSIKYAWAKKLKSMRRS
As to the kind of experiment: CDP-DAG formation, TLC with fluorescence imaging. It counts as biochemical. The conditions noted are these: 2 mM CTP; 2 mM MgCl2; Tris-HCl pH 7.5; 0.2% Triton X-100; 30 °C; 10 min; labelled compound.

In the case of NBD-PA, the Km was found to be 67 ± 10 µM.
